Laboratory results published in patent publication US4720503A, “N-substituted fused-heterocyclic carboxamide derivatives as dual cyclooxygenase and lipoxygenase inhibitors” (Merck & Co., Inc., priority 1985, dated 1988).
Each block holds one compound with its values, some of them ahead of it.

What was measured:
5-lipoxygenase = target: T1, 5-lipoxygenase (Homo sapiens, UniProt P09917); assay: 5-lipoxygenase enzyme assay, % inhibition (5-LO); format: biochemical; details: for inhibition at 1 µg/mL: Dosage 1.0 μg/ml
T1 sequence (P09917 1-674): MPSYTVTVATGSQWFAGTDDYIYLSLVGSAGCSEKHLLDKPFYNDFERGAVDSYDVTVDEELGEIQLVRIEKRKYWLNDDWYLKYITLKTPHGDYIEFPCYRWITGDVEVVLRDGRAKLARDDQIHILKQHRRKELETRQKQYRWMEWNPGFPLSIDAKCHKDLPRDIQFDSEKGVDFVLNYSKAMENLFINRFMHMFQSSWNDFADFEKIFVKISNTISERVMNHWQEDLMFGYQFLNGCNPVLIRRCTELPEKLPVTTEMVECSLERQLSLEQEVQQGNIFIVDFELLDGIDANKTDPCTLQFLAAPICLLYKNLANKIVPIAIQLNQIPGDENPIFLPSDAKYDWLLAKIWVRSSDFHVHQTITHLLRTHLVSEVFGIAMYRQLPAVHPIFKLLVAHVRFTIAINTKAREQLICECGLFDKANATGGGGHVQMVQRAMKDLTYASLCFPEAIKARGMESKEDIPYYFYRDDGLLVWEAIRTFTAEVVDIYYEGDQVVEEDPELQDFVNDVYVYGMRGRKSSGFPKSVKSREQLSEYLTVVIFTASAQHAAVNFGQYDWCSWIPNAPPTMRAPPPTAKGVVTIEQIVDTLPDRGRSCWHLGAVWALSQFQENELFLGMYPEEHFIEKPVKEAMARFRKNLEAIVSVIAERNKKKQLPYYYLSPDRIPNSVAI

cyclooxygenase = cyclooxygenase (Homo sapiens, UniProt P23219); assay: cyclooxygenase enzyme assay, % inhibition (CO); format: biochemical; details: for inhibition at 0.5 µg/mL: Dosage 0.5 μg/ml; for inhibition at 1 µg/mL: Dosage 1.0 μg/ml; for inhibition at 5 µg/mL: Dosage 5.0 μg/ml; for inhibition at 0.1 µg/mL: Dosage 0.1 μg/ml
Sequence of cyclooxygenase (P23219 24-599): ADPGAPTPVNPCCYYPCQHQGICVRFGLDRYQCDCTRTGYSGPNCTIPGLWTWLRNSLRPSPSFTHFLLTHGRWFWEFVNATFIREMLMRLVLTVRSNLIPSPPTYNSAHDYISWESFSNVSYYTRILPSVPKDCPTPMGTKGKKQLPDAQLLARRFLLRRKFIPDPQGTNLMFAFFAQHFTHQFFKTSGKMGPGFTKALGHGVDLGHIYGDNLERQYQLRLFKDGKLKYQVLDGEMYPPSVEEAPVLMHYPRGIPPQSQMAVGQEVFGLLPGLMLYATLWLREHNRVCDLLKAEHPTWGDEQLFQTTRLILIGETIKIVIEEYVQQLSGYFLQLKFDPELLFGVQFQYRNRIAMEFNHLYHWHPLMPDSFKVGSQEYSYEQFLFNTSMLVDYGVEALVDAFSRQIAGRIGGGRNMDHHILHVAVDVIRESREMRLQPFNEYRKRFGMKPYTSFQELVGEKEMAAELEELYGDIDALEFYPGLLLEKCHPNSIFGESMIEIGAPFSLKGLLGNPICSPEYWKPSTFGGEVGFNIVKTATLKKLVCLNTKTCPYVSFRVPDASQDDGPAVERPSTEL

[1] = solubility remark (footnote of table 9); format: physicochemical; details: footnote to 5-LO value at 100 μg/ml
gastric cytoprotection = details: S. Szabo et al., Experimentia, 38, 254, 1982; cited from earlier work
gastric acid secretion = details: S. Szabo et al., Experimentia, 38, 254, 1982; cited from earlier work

inhibition at 0.5 µg/mL (5-lipoxygenase; Dosage 0.5 μg/ml): 30% | inhibition at 5 µg/mL (5-lipoxygenase; Dosage 5.0 μg/ml): 34% | inhibition at 0.5 µg/mL (cyclooxygenase): 95% | inhibition at 1 µg/mL (cyclooxygenase): 98% | inhibition at 2 µg/mL (cyclooxygenase; Dosage 2.0 μg/ml): 98% | inhibition at 5 µg/mL (cyclooxygenase): 100%
Compound: COC(=O)c1cc2oc(C(=O)NC=C(c3ccccc3)c3ccccc3)c(O)c2s1 [O phenyl phenyl CO2 CH3, N-(2,2-Diphenylethenyl)-5-carbomethoxy-3-hydroxythieno[3,2-b]furan-2-carboxamide]

inhibition at 0.1 µg/mL (5-lipoxygenase; Dosage 0.1 μg/ml): 11% | inhibition at 1 µg/mL (5-lipoxygenase): 14% | inhibition at 10 µg/mL (5-lipoxygenase; Dosage 10.0 μg/ml): 66% | inhibition at 0.1 µg/mL (cyclooxygenase): 49% | inhibition at 1 µg/mL (cyclooxygenase): 97% | inhibition at 5 µg/mL (cyclooxygenase): 98% | inhibition at 10 µg/mL (cyclooxygenase; Dosage 10.0 μg/ml): 100%
Compound: Cc1ccc(C(=CNC(=O)c2sc3ccsc3c2O)c2ccco2)cc1 [S p-tolyl 2-furyl H, N-[2-(2-Furyl)-2-(4-methylphenyl)ethenyl]-3-hydroxythieno[3,2-b]thiophene-2-carboxamide]

solubility (footnote) [1]: very insoluble | inhibition at 100 µg/mL (5-lipoxygenase): 12% | inhibition at 0.01 µg/mL (cyclooxygenase; Dosage 0.01 μg/ml): 9% | inhibition at 0.05 µg/mL (cyclooxygenase; Dosage 0.05 μg/ml): 33% | inhibition at 0.5 µg/mL (cyclooxygenase): 80% | inhibition at 5 µg/mL (cyclooxygenase): 100% | inhibition at 100 µg/mL (cyclooxygenase; Dosage 100 μg/ml): 100%
Compound: COC(=O)c1cc2sc(C(=O)NC=C(c3ccccc3)c3ccccc3)c(O)c2s1 [S phenyl phenyl CO2 CH3, 5-Carbomethoxy-N-(2,2-diphenylethenyl)-3-hydroxythieno[3,2-b]thiophene-2-carboxamide]

inhibition at 1 µg/mL (5-lipoxygenase): 34% | inhibition at 0.1 µg/mL (cyclooxygenase): 39% | inhibition at 0.48 µg/mL (cyclooxygenase; Dosage 0.48 μg/ml): 99% | inhibition at 1 µg/mL (cyclooxygenase): 100% | inhibition at 2.4 µg/mL (cyclooxygenase; Dosage 2.40 μg/ml): 100%
Compound: O=C(NC=C(c1ccccc1)c1ccccc1)c1sc2ccsc2c1O [S phenyl phenyl H, N-(2,2-diphenylethenyl)-3-hydroxythieno[3,2-b]thiophene-2-carboxamide]

Compound: CCCCC[C@H](O)/C=C/[C@@H]1[C@@H](C/C=C\CCCC(=O)O)[C@H](O)C[C@H]1O [protaglandin F2B]
gastric cytoprotection (gastric cytoprotection): does induce gastric cytoprotection | inhibition of gastric acid secretion (gastric acid secretion): does not inhibit gastric acid secretion
